In one experiment the target is T1, full-length human CSNK1D (Homo sapiens, UniProt P48730).
T1 construct: N-terminal Glutathion-S-Transferase (GST) and full-length human CSNK1D; purchased Life Technologies PV3665; host or cells: baculovirus infected insect cells
Put plainly: CSNK1D Assay (ADP-Glo, 1 μM ATP). The experiment is classed as biochemical. The note with it: Table 3, read-out: CSNK1D IC50 [mol/l] (median). Here is the method:
CSNK1D-inhibitory activity of compounds of the present invention in presence of 1 μM adenosine-tri-phosphate (ATP) was quantified employing the CSNK1 D assay as described in the following paragraphs. In essence, the enzyme activity is measured by quantification of the adenosine-di-phosphate (ADP), which is generated as a co-product of the enzyme reaction, via the “ADP-Glo™ Kinase Assay” kit from the company Promega. This detection system works as follows: In a first step the ATP not consumed in the kinase reaction is quantitatively converted to cAMP employing an adenylate cyclase (“ADP-Glo-reagent”), then the adenylate cyclase is stopped and the ADP generated in the kinase reaction converted to ATP which generates in a luciferase-based reaction a glow-luminescence signal (“Kinase Detection Reagent”).
Recombinant fusion protein of N-terminal Glutathion-S-Transferase (GST) and full-length human CSNK1D, expressed by baculovirus infected insect cells and purified via Glutathion affinity chromatography, was purchased from Life Technologies (product no. PV3665) and used as enzyme. As substrate for the kinase reaction the biotinylated peptide Btn-Ahx-[…] (C-terminus in amide form) was used which can be purchased e.g. from the company Biosyntan (Berlin-Buch, Germany).
For the assay 50 nl of a 100 fold concentrated solution of the test compound in DMSO was pipetted into a white 1536-well microtiter plate (Greiner Bio-One, Frickenhausen, Germany), 2 μL of a solution of CSNK1D in aqueous assay buffer [50 mM HEPES pH 7.5, 10% (v/v) glycerol, 10 mM MgCl2, 50 mM NaCl, 1 mM dithiothreitol, 0.01% (w/v) bovine serum albumin, 0.01% (v/v) Triton X-100] were added and the mixture was incubated for 15 min at 22° C. to allow pre-binding of the test compounds to the enzyme before the start of the kinase reaction. […] The concentration of CSNK1D was adjusted depending of the activity of the enzyme lot and was chosen appropriate to have the assay in the linear range, a typical concentration is about 0.5 ng/μL. The reaction was stopped by the addition of 2.5 μL of “ADP-Glo-reagent” (1:1.5 fold diluted with water) and the resulting mixture was incubated at 22° C. for 1 h to convert the ATP not consumed in the kinase reaction completely […]. Subsequently 2.5 μL of the “kinase detection reagent” (1.2 fold more concentrated than recommended by the producer) were added, the resulting mixture was incubated at 22° C. for 1 h and then the luminescence measured with a suitable measurement instrument (e.g. Viewlux™ from Perkin-Elmer). The amount of emitted light was taken as a measure for the amount of ADP generated and thereby for the activity of the CSNK1D.

The target of experiment [1] is T2, wild-type Epidermal Growth Factor Receptor (EGFR) (Homo sapiens, UniProt P00533).
T2 construct: a fragment of human EGFR (amino acids R669 to A1210); made in house; host or cells: Sf9 insect cells
Put plainly: WT-EGFR Kinase Assay (TR-FRET, 2 mM ATP). Format: biochemical. An excerpt:
Inhibitory activity of compounds of the present invention against wild-type Epidermal Growth Factor Receptor (EGFR) was quantified employing the TR-FRET based EGFR assay as described in the following paragraphs.
Recombinant fusion protein of N-terminal Glutathion-S-Transferase (GST) and a fragment of human EGFR (amino acids R669 to A1210), expressed in Sf9 insect cells and purified via affinity chromatography using Glutathion Sepharose as described above, was used as kinase. As substrate for the kinase reaction the biotinylated peptide biotin-Ahx-[…] (C-terminus in amide form) was used which can be purchased e.g. form the company Biosynthan GmbH (Berlin-Buch, Germany).
For the assay 50 nl of a 100 fold concentrated solution of the test compound in DMSO was pipetted into either a black low volume 384 well microtiter plate or a black 1536 well microtiter plate (both Greiner Bio-One, Frickenhausen, Germany), 2 μL of a solution of EGFR in aqueous assay buffer [50 mM Hepes pH 7.0, 10 mM MgCl2, 1 mM dithiothreitol, 0.5 mM EGTA, 0.3 mM activated sodium ortho-vanadate, 0.005% (w/v) bovine serum albumin, 0.005% (v/v) Tween-20] were added and the mixture was incubated for 15 min at 22° C. to allow pre-binding of the test compounds to the enzyme before the start of the kinase reaction. […] The concentration of EGFR was adjusted depending of the activity of the enzyme lot and was chosen appropriate to have the assay in the linear range, typical concentration was 7.6 pg/μL. The reaction was stopped by the addition of 3 μL of a solution of HTRF detection reagents (83.3 nM streptavidine-XL665 [Cisbio Bioassays, Codolet, France] and 1.67 nM PT66-Tb-Cryptate, a terbium-cryptate labelled anti-phospho-tyrosine antibody from Cisbio Bioassays [instead of the PT66-Tb-cryptate PT66-Eu-Chelate from Perkin Elmer can also be used]) in an aqueous EDTA-solution (133.3 mM EDTA, 0.2% (w/v) bovine serum albumin in 50 mM HEPES pH 7.5).
The resulting mixture was incubated 1 h at 22° C. to allow the binding of the biotinylated phosphorylated peptide to the streptavidine-XL665 and the PT66-Tb-Cryptate. Subsequently the amount of phosphorylated substrate was evaluated by measurement of the resonance energy transfer from the PT66-Tb-Cryptate to the streptavidine-XL665. Therefore, the fluorescence emissions at 620 nm and 665 nm after excitation at 337 nm were measured in a HTRF reader, e.g. a Pherastar (BMG Labtechnologies, Offenburg, Germany) or a Viewlux (Perkin-Elmer). The ratio of the emissions at 665 nm and at 622 nm was taken as the measure for the amount of phosphorylated substrate.

Where [2] appears, read: EGFR Wildtyp 2 mM ATP IC50 [mol/l] (median), Table 4.
Setting [3] is: read-out: EGFR Wildtyp 2 mM ATP IC50 [mol/l] (median), Table 4.

Structures are written as SMILES. Where two headings read alike, the source gives them in different places. Where only a bound is given, the exact number is not on record here.

T1 sequence (P48730 whole entry): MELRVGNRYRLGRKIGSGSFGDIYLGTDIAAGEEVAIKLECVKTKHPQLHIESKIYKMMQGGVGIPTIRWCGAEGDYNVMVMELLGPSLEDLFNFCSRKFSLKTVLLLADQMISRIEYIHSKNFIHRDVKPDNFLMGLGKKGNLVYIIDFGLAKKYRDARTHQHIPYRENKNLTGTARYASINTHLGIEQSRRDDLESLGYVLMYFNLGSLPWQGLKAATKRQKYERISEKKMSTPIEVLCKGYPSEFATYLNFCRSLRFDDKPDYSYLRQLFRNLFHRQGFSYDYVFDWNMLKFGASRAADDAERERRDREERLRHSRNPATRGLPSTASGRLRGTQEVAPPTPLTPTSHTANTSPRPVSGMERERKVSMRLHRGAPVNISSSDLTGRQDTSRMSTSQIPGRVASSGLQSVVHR
T2 sequence (P00533 669-1210): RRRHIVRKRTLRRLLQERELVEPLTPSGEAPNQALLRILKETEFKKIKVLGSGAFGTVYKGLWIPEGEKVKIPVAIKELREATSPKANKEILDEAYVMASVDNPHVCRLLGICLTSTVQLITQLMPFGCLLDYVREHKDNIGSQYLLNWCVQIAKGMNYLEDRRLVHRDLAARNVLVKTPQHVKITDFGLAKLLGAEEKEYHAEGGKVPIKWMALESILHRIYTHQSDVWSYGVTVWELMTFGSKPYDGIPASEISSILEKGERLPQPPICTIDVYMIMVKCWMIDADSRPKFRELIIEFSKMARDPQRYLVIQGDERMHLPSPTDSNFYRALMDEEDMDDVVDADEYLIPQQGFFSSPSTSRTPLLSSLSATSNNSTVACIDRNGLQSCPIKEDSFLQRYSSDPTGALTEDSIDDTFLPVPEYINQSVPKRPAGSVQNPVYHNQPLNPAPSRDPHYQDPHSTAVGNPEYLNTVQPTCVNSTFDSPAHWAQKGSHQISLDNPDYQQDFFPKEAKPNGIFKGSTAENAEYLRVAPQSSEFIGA

As to `O=C(Nc1cc(-c2[nH]c3cccnc3c2-c2ccccc2)ccn1)C(CC(F)F)c1ccc(F)cc1` (single isomer, unassigned; (-)) [Example 23, (−)-4,4-difluoro-2-(4-fluorophenyl)-N-[4-(3-phenyl-1H-pyrrolo[3,2-b]pyridin-2-yl)pyridin-2-yl]butanamide], the results for the IC50 (on full-length human CSNK1D; in experiment [1] (setting [2])) were 12.5 nM and over 20000 nM, respectively.

Regarding `CC(C)(O)c1cc(F)nc2c(-c3ccccn3)c(-c3ccnc(NC(=O)C(CC(F)F)c4ccc(F)cc4)c3)[nH]c12` (racemic) [Example 98, (2RS)-4,4-difluoro-N-{4-[5-fluoro-7-(2-hydroxypropan-2-yl)-3-(pyridin-2-yl)-1H-pyrrolo[3,2-b]pyridin-2-yl]pyridin-2-yl}-2-(4-fluorophenyl)butanamide], the IC50 is 6.84 nM at full-length human CSNK1D and over 20000 nM in experiment [1] (setting [2]).

For the compound `Cc1ccc2[nH]c(-c3ccnc(NC(=O)C(CC(F)F)c4ccc(F)cc4)c3)c(-c3ccccn3)c2n1` (single isomer, unassigned) [Example 5, 4,4-difluoro-2-(4-fluorophenyl)-N-{4-[5-methyl-3-(pyridin-2-yl)-1H-pyrrolo[3,2-b]pyridin-2-yl]pyridin-2-yl}butanamide], the IC50 on full-length human CSNK1D was 7.13 nM; in experiment [1] (setting [2]) it was over 20000 nM.

As for `O=C(Nc1cc(-c2[nH]c3c(OCC(F)(F)F)ncnc3c2-c2ccccn2)ccn1)C(CC(F)(F)F)c1ccc(F)cc1` (single isomer, unassigned) [Example 127, (2R or S)-4,4,4-trifluoro-2-(4-fluorophenyl)-N-{4-[7-(pyridin-2-yl)-4-(2,2,2-trifluoroethoxy)-5H-pyrrolo[3,2-d]pyrimidin-6-yl]pyridin-2-yl}butanamide], the IC50 on full-length human CSNK1D was 88.1 nM; in experiment [1] (setting [3]), over 20000 nM.

As to `O=C(Nc1cc(-c2[nH]c3c(OCC4CC4)ncnc3c2-c2ccccn2)ccn1)C(CC(F)F)c1ccc(F)cc1` (racemic) [Example 128, (2RS)—N-{4-[4-(cyclopropylmethoxy)-7-(pyridin-2-yl)-5H-pyrrolo[3,2-d]pyrimidin-6-yl]pyridin-2-yl}-4,4-difluoro-2-(4-fluorophenyl)butanamide], the values for the IC50 (on full-length human CSNK1D; in experiment [1] (setting [2])) were 8.51 nM and 11200 nM, respectively.

With `COc1cnc2c(-c3ccccn3)c(-c3ccnc(NC(=O)C(CC(F)F)c4ccc(F)cc4)c3)[nH]c2n1` (single isomer, unassigned) [Example 102, 4,4-difluoro-2-(4-fluorophenyl)-N-{4-[3-methoxy-7-(pyridin-2-yl)-5H-pyrrolo[2,3-b]pyrazin-6-yl]pyridin-2-yl}butanamide], the figures for the IC50 (on full-length human CSNK1D; in experiment [1] (setting [2])) were 75 nM and over 20000 nM, respectively.

For `Cc1cc2[nH]c(-c3ccnc(NC(=O)C(CC(F)F)c4ccc(F)cc4)c3)c(-c3ccccn3)c2nc1F` (racemic) [Example 33, (rac)-4,4-difluoro-N-{4-[5-fluoro-6-methyl-3-(pyridin-2-yl)-1H-pyrrolo[3,2-b]pyridin-2-yl]pyridin-2-yl}-2-(4-fluorophenyl)butanamide], the IC50 is 37.3 nM at full-length human CSNK1D and over 20000 nM in experiment [1] (setting [2]).

`O=C(Nc1cc(-c2[nH]c3c(OC4CC4)cc(F)nc3c2-c2ccccn2)ccn1)C(CC(F)F)c1ccc(F)cc1` (racemic) [Example 42, (rac)-N-{4-[7-(cyclopropyloxy)-5-fluoro-3-(pyridin-2-yl)-1H-pyrrolo[3,2-b]pyridin-2-yl]pyridin-2-yl}-4,4-difluoro-2-(4-fluorophenyl)butanamide]: the figures for the IC50 (on full-length human CSNK1D; in experiment [1] (setting [2])) were 14.4 nM and over 20000 nM, respectively.

Regarding `COc1cc(F)nc2c(-c3ccccn3)c(-c3ccnc(NC(=O)C(CC(F)F)c4ccc(F)cc4)c3)[nH]c12` (racemic) [Example 39, (rac)-4,4-difluoro-N-{4-[5-fluoro-7-methoxy-3-(pyridin-2-yl)-1H-pyrrolo[3,2-b]pyridin-2-yl]pyridin-2-yl}-2-(4-fluorophenyl)butanamide], the IC50 on full-length human CSNK1D was 40.2 nM; in experiment [1] (setting [2]), over 20000 nM.

With `CC(C)(O)c1cc(F)nc2c(-c3ccccn3)c(-c3ccnc(NC(=O)C(CC(F)F)c4ccc(F)cc4)c3)[nH]c12` (single isomer, unassigned) [Example 99, (2R or S)-4,4-difluoro-N-{4-[5-fluoro-7-(2-hydroxypropan-2-yl)-3-(pyridin-2-yl)-1H-pyrrolo[3,2-b]pyridin-2-yl]pyridin-2-yl}-2-(4-fluorophenyl)butanamide], the IC50 was 3.36 nM on full-length human CSNK1D and over 20000 nM in experiment [1] (setting [2]).

On to `Cc1cc2[nH]c(-c3ccnc(NC(=O)C(CC(F)F)c4ccc(F)cc4)c3)c(-c3ccccn3)c2nc1F` (single isomer, unassigned) [Example 35, 4,4-difluoro-N-{4-[5-fluoro-6-methyl-3-(pyridin-2-yl)-1H-pyrrolo[3,2-b]pyridin-2-yl]pyridin-2-yl}-2-(4-fluorophenyl)butanamide], for which the results for the IC50 (on full-length human CSNK1D; in experiment [1] (setting [3])) were 3.7 nM and over 20000 nM, respectively.

As for `O=C(Nc1cc(-c2[nH]c3cccnc3c2-c2ccccn2)ccn1)C(CC(F)F)c1ccc(F)cc1` (racemic) [Example 10, 4,4-difluoro-2-(4-fluorophenyl)-N-{4-[3-(pyridin-2-yl)-1H-pyrrolo[3,2-b]pyridin-2-yl]pyridin-2-yl}butanamide], the values for the IC50 (at full-length human CSNK1D; in experiment [1] (setting [2])) were 4.99 nM and over 20000 nM, respectively.

As for `O=C(Nc1cc(-c2[nH]c3c(OCC(F)F)cc(F)nc3c2-c2ccccn2)ccn1)C(CC(F)F)c1ccc(F)cc1` (single isomer, unassigned) [Example 29, (2R or S)—N-{4-[7-(2,2-difluoroethoxy)-5-fluoro-3-(pyridin-2-yl)-1H-pyrrolo[3,2-b]pyridin-2-yl]pyridin-2-yl}-4,4-difluoro-2-(4-fluorophenyl)butanamide], the IC50 at full-length human CSNK1D was 2.32 nM; in experiment [1] (setting [2]), over 20000 nM.

As to `O=C(Nc1cc(-c2[nH]c3c(OCC(F)(F)F)ncnc3c2-c2ccccn2)ccn1)C(CC(F)F)c1ccc(F)cc1` (single isomer, unassigned) [Example 124, (2R or S)-4,4-difluoro-2-(4-fluorophenyl)-N-{4-[7-(pyridin-2-yl)-4-(2,2,2-trifluoroethoxy)-5H-pyrrolo[3,2-d]pyrimidin-6-yl]pyridin-2-yl}butanamide], the IC50 was 46.6 nM on full-length human CSNK1D and over 20000 nM in experiment [1] (setting [3]).

The record behind these values is patent publication US12692261B2, “Substituted heterocyclic compounds and therapeutic uses thereof” (Bayer Aktiengesellschaft, priority 2020, dated 2026).
